US9789149B2, “Vegetation water composition for treatment of inflammatory skin conditions” (CreAgri, Inc., priority 2005, dated 2017)

Assays:
[1] = test system: low density lipoprotein (LDL) oxidation; conditions: Visioli and Galli, 1998; cited from earlier work
[2] = test system: peroxynitrite dependent DNA base modification and tyrosine nitration; conditions: Deiana et al., 1999; cited from earlier work
[3] = test system: various human cellular systems; conditions: Manna et al., 2000; cited from earlier work
12-lipoxygenase = conditions: de la Puerta et al., 1999; Kohyama et al., 1997; cited from earlier work
[4] = humans; Visioli et al., 2000; cited from earlier work
5-lipoxygenase = conditions: de la Puerta et al., 1999; Kohyama et al., 1997; cited from earlier work
platelet aggregation = conditions: Petroni et al., 1995; cited from earlier work
erythema nodosum = experiment: Example 1: patient with erythema nodosum treated with vegetation water composition tablets; format: in vivo, human; conditions: 5 mg predonine for nearly 2.3 years
Procedure: In studies conducted in support of the invention, compositions comprised of the vegetation water composition were prepared and administered to test subjects, as set forth in Examples 1-6. Briefly, the pitted pulp of olives was masticated and pressed to produce a liquid-phase mixture and solid by-products. The solid by-products were separated and removed from the liquid-phase mixture by filtration and centrifugation. The liquid-phase mixture was allowed to rest to allow the oil and aqueous fractions to segregate. The aqueous phase was decanted and acidified with citric acid to adjust the pH between 2 and 4. The acidified aqueous fraction was concentrated by distillation under vacuum and dried by spray drying or oven drying under vacuum to obtain a powder, which was used to prepare the tablets as used in Examples 1-6. Each tablet contained 90 mg of olive pulp solids, 5.4 mg of total polyphenols, and ˜2.5 mg of hydroxytyrosol.
In another embodiment, the compositions of the invention are suitable for treating erythema nodosum. Erythema nodosum is an inflammatory condition characterized by tender, red bumps, and is usually found on the shins, but may also occur on other areas of the body such as the buttocks, calves, ankles, thighs, and upper extremities. Quite often, erythema nodosum is not a separate disease, but, rather, a sign of some other disease, or of sensitivity to a drug. […]

Row | Compound | LDL oxidation [1] | peroxynitrite dependent DNA base modification and tyrosine nitration [2] | cytotoxicity induced by reactive oxygen species [3] | inhibition of 12-lipoxygenase (12-lipoxygenase) | absorption following ingestion [4] | inhibition of 5-lipoxygenase (5-lipoxygenase) | platelet aggregation (platelet aggregation) | erythema nodosum lesions, prior treatment (erythema nodosum)
1 | OCCc1ccc(O)c(O)c1 [hydroxytyrosol, 3,4-dihydroxyphenethyl alcohol] | prevents | inhibitory effect | counteracts | inhibits | dose-dependently absorbed | inhibits | prevents | 
2 | C[C@]12C=CC(=O)C=C1CC[C@@H]1[C@@H]2[C@@H](O)C[C@@]2(C)[C@H]1CC[C@]2(O)C(=O)CO [predonine] |  |  |  |  |  |  |  | little resolution
